Patent US20100029710A1, “COMPOUNDS HAVING BOTH ANGIOTENSIN II RECEPTOR ANTAGONISM AND PPARy ACTIVATING ACTIVITIES” (Pfizer Products Inc., priority 2006, published 2010)

Assays:
[1] = molecular target: T1, Human recombinant AT1 receptor (Homo sapiens, UniProt P30556); experiment: AT1 receptor radioligand binding (flashplate); conditions: 125I Sar1,Ile8-Angiotensin II radioligand
T1 construct: purchased
T1 sequence (P30556 1-359): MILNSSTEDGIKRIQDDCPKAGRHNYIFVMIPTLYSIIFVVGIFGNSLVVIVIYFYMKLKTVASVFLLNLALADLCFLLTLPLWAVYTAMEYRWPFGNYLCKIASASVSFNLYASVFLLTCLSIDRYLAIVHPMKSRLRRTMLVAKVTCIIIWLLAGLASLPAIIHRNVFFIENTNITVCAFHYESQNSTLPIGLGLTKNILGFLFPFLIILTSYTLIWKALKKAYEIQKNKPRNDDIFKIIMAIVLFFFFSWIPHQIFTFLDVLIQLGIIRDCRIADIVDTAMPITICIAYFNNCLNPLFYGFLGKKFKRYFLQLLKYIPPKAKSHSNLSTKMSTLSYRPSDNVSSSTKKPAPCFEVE
Description: Angiotensin II receptor antagonist activity may be determined using commercially available flashplates coated with the AT1 or AT2 receptor which provide a rapid and high throughput means to evaluate compounds compared to traditional filtration based assays (Regina M. Van Der Hee et al., Journal of Biomolecular Screening 10(2); 2005; 118-126).
AT1 receptor affinity was determined in a radioligand binding format using commercially available flashplate technology. Human recombinant AT1 receptor were coated on the wells of a 96 well flashplate and test compounds were diluted and added to wells at a final concentration range of 50 μM to 1 μM. Total binding was determined in the absence of compound and non-specific binding in the presence of 10 μM cold Angiotensin II. ^125I labeled Sar^1, Ile^8-Angiotensin II was added to all wells at Kd concentration and left for 2 hours at room temperature to equilibrate. Plates were read on a TopCount (Perkin Elmer) and concentration-response curves constructed using commercial curve fitting software. The Ki was determined via interpolation and the use of the Cheng-Prussof equation.

[2] = molecular target: T2, human PPARγ LBD bound to Gal4 DBD (Homo sapiens, UniProt P37231); experiment: PPARγ transfection luciferase reporter assay in HepG2 cells; assay type: cell-based; conditions: for Emax: HepG2, 24 h, compared to full agonist response (standard TZD full agonist), read-out: PPARγ % activation; for EC50: HepG2, 24 hours exposure
T2 construct: expressed in transfected cells; host or cells: HepG2
T2 sequence (P37231 238-503 limits assumed): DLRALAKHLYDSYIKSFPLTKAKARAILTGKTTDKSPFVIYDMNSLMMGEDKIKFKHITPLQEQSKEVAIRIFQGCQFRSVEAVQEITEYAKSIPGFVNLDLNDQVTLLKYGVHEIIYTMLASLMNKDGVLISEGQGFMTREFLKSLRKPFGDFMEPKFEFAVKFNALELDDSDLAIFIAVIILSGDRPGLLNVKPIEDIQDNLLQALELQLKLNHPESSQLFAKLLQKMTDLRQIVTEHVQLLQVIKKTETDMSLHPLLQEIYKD
Description: PPARγ agonist activity may be determined by a cell line transiently transfected with PPARγ bound to a DNA binding domain that controls luciferase expression. The degree of receptor agonism is measured by the amount of luciferase activity after compound treatment. The ratio of treated cells over vehicle control cells provides a measure of fold activation and allows an EC50 (shown in tables I and II as […] EC50) and % activation to be calculated
A human hepatocellular carcinoma cell line (HepG2) was subcultured into dishes and transiently transfected with DNA to allow expression of human PPARγ LBD bound to Gal4 DBD. Luciferase reporter gene and β-galactosidase control genes were co-transfected to enable activity to be measured. After 24 hours, cells were exposed to compounds in the concentration range of 0.1 nM-100 μM and left for a further 24 hours. Luciferase activity is determined by luminometry and PPARγ activation is expressed as a ratio of luciferase activity to β-galactosidase activity to account for transfection efficiency. Potency is described by an EC50 defined as the concentration of compound producing receptor activation equivalent to 50% of the maximum for that compound (shown in Table I as transfection EC50). The maximum fold activation is a measure of efficacy and is expressed as a percentage of a reference full agonist run in the same assay. Efficacy is described by % activation of receptor relative to a standard thiazolidinedione (TZD) full agonist.

Compound	IC50 [1] [nM]	Emax [2] [%]	EC50 [2] [nM]
CCc1nc2c(C)cc([C@@H](O)c3ccccc3)nc2n1[C@H]1CCc2cc(-c3ccccc3-c3nnn[nH]3)ccc21 (single isomer, unassigned) [Example 8a]	1.3	16	60
CCCc1nc2c(C)cc(CCC(C)(O)c3ccccc3)nc2n1[C@H]1CCc2cc(-c3ccccc3-c3nnn[nH]3)ccc21 (stereo partly drawn) [Example 51, 4-(3-((1S)-5-(2-(1H-tetrazol-5-yl)phenyl)-2,3-dihydro-1H-inden-1-yl)-7-methyl-2-propyl-3H-imidazo[4,5-b]pyridin-5-yl)-2-phenylbutan-2-ol]	2.1	36	130
CCCc1nc2c(C)cc(CCC(C)(O)CC)nc2n1[C@H]1CCc2cc(-c3ccccc3-c3nnn[nH]3)ccc21 (stereo partly drawn) [Example 50, 1-(3-((1S)-5-(2-(1H-tetrazol-5-yl)phenyl)-2,3-dihydro-1H-inden-1-yl)-7-methyl-2-propyl-3H-imidazo[4,5-b]pyridin-5-yl)-3-methylpentan-3-ol]	1.7	30	415
CCc1nc2c(C)cc(CCc3ccccc3F)nc2n1[C@H]1CCc2cc(-c3ccccc3-c3nnn[nH]3)ccc21 [Example 26, 3-((1S)-5-(2-(1H-tetrazol-5-yl)phenyl)-2,3-dihydro-1H-inden-1-yl)-5-(2-fluorophenethyl)-2-ethyl-7-methyl-3H-imidazo[4,5-b]pyridine]	10	26	380
C=CCC(O)Cc1cc(C)c2nc(CC)n([C@H]3CCc4cc(-c5ccccc5-c5nnn[nH]5)ccc43)c2n1 (stereo partly drawn) [Example 20, 1-(3-((1S)-5-(2-(1H-tetrazol-5-yl)phenyl)-2,3-dihydro-1H-inden-1-yl)-2-ethyl-7-methyl-3H-imidazo[4,5-b]pyridin-5-yl)pent-4-en-2-ol]	5.7	31	70
CCc1nc2c(C)cc(CCC3CC3)nc2n1[C@H]1CCc2cc(-c3ccccc3-c3nnn[nH]3)ccc21 [Example 59, 3-((1S)-5-(2-(1H-tetrazol-5-yl)phenyl)-2,3-dihydro-1H-inden-1-yl)-5-(2-cyclopropylethyl)-2-ethyl-7-methyl-3H-imidazo[4,5-b]pyridine]	2.9	30	215
CCc1nc2c(C)cc(CC(O)C3CC3)nc2n1[C@H]1CCc2cc(-c3ccccc3-c3nnn[nH]3)ccc21 (stereo partly drawn) [Example 19, 2 (3-((1S)-5-(2-(1H-tetrazol-5-yl)phenyl)-2,3-dihydro-1H-inden-1-yl)-2-ethyl-7-methyl-3H-imidazo[4,5-b]pyridin-5-yl)-1-cyclopropylethanol]	7.2	20	105
CCCc1nc2c(C)cc(CCC(C)O)nc2n1[C@H]1CCc2cc(-c3ccccc3-c3nnn[nH]3)ccc21 (stereo partly drawn) [Example 49, 4-(3-((1S)-5-(2-(1H-tetrazol-5-yl)phenyl)-2,3-dihydro-1H-inden-1-yl)-7-methyl-2-propyl-3H-imidazo[4,5-b]pyridin-5-yl)butan-2-ol]	1.6	18	815
CCc1nc2c(C)cc(CCc3cccnc3)nc2n1[C@H]1CCc2cc(-c3ccccc3-c3nnn[nH]3)ccc21 [Example 24, 3-((1S)-5-(2-(1H-tetrazol-5-yl)phenyl)-2,3-dihydro-1H-inden-1-yl)-2-ethyl-7-methyl-5-(2-(pyridin-3-yl)ethyl)-3H-imidazo[4,5-b]pyridine]	2.1	28	425
CCc1nc2c(C)cc(CCc3ccccc3)nc2n1[C@H]1CCc2cc(-c3ccccc3-c3nnn[nH]3)ccc21 [Example 30, 3-((1S)-5-(2-(1H-tetrazol-5-yl)phenyl)-2,3-dihydro-1H-inden-1-yl)-2-ethyl-7-methyl-5-phenethyl-3H-imidazo[4,5-b]pyridine]	6	28	160

Second part, the compound after the results:

IC50 [1] [nM]	Emax [2] [%]	EC50 [2] [nM]	Compound
0.7	17	460	CCc1nc2c(C)cc([C@@H](OC)C(C)C)nc2n1[C@H]1CCc2cc(-c3ccccc3-c3nnn[nH]3)ccc21 [Example 12, 3-((1S)-5-(2-(1H-tetrazol-5-yl)phenyl)-2,3-dihydro-1H-inden-1-yl)-2-ethyl-5-((S)-1-methoxy-2-methylpropyl)-7-methyl-3H-imidazo[4,5-b]pyridine]
2	21	215	CCc1nc2c(C)cc(CC[C@H](C)OC)nc2n1[C@H]1CCc2cc(-c3ccccc3-c3nnn[nH]3)ccc21 [Example 38, 3-((1S)-5-(2-(1H-tetrazol-5-yl)phenyl)-2,3-dihydro-1H-inden-1-yl)-2-ethyl-5-((S)-3-methoxybutyl)-7-methyl-3H-imidazo[4,5-b]pyridine]
2.2	28	460	CCc1nc2c(C)cc(C3OC3(C)C)nc2n1[C@H]1CCc2cc(-c3ccccc3-c3nnn[nH]3)ccc21 (stereo partly drawn) [Example 22, 3-((1S)-5-(2-(1H-tetrazol-5-yl)phenyl)-2,3-dihydro-1H-inden-1-yl)-5-(3,3-dimethyloxiran-2-yl)-2-ethyl-7-methyl-3H-imidazo[4,5-b]pyridine]
1.4	30	215	CCc1nc2c(C)cc(CCC(C)(C)O)nc2n1[C@H]1CCc2cc(-c3ccccc3-c3nnn[nH]3)ccc21 [Example 53, 4-(3-((1S)-5-(2-(1H-tetrazol-5-yl)phenyl)-2,3-dihydro-1H-inden-1-yl)-2-ethyl-7-methyl-3H-imidazo[4,5-b]pyridin-5-yl)-2-methylbutan-2-ol]
4	36	30	CCc1nc2c(C)cc(CCC(C)(O)CC(C)C)nc2n1[C@H]1CCc2cc(-c3ccccc3-c3nnn[nH]3)ccc21 (stereo partly drawn) [Example 69, 1-(3-((1S)-5-(2-(1H-tetrazol-5-yl)phenyl)-2,3-dihydro-1H-inden-1-yl)-2-ethyl-7-methyl-3H-imidazo[4,5-b]pyridin-5-yl)-3,5-dimethylhexan-3-ol]
8.8	24	65	CCc1nc2c(C)cc(C(C)(C)OC)nc2n1[C@H]1CCc2cc(-c3ccccc3-c3nnn[nH]3)ccc21 [Example 17, 3-((1S)-5-(2-(1H-tetrazol-5-yl)phenyl)-2,3-dihydro-1H-inden-1-yl)-2-ethyl-5-(2-methoxypropan-2-yl)-7-methyl-3H-imidazo[4,5-b]pyridine]
2.4	38	150	CCc1nc2c(C)cc(CC[C@@](C)(O)C(C)C)nc2n1[C@H]1CCc2cc(-c3ccccc3-c3nnn[nH]3)ccc21 [Example 55, (R)-1-(3-((1S)-5-(2-(1H-tetrazol-5-yl)phenyl)-2,3-dihydro-1H-inden-1-yl)-2-ethyl-7-methyl-3H-imidazo[4,5-b]pyridin-5-yl)-3,4-dimethylpentan-3-ol]
2.5	28	285	CCc1nc2c(C)cc(CC[C@@H](O)C(C)C)nc2n1[C@H]1CCc2cc(-c3ccccc3-c3nnn[nH]3)ccc21 [Example 57, (R)-1-(3-((1S)-5-(2-(1H-tetrazol-5-yl)phenyl)-2,3-dihydro-1H-inden-1-yl)-2-ethyl-7-methyl-3H-imidazo[4,5-b]pyridin-5-yl)-4-methyl pentan-3-ol]
